Data as given in the NIST ThermoML archive (doi:10.1016/j.jct.2004.06.004).
± gives the expanded uncertainty stated by the source.

Assays:
[1] = Liquid
[2] = xn = mol fraction of the nth substance listed; settings: 101.3 kPa, Liquid

COCCO [2-methoxyethan-1-ol]
[1]
Settings	mass density, 293.15 K [kg/m3]	viscosity, 293.15 K [mPa·s]	viscosity, 303.15 K [mPa·s]	viscosity, 308.15 K [mPa·s]	viscosity, 313.15 K [mPa·s]	viscosity, 318.15 K [mPa·s]	viscosity, 323.15 K [mPa·s]
101.3 kPa	–	1.991 ± 0.04	1.375 ± 0.033	1.126 ± 0.027	0.942 ± 0.023	0.832 ± 0.021	0.757 ± 0.019
101.33 kPa	965.2 ± 0.5	–	–	–	–	–	–

Settings	viscosity [mPa·s]
[1], 293.15 K, 101.33 kPa, Capillary tube (Ostwald / Ubbelohde) method	1.991 ± 0.015

COCCO [2-methoxyethan-1-ol] + O
viscosity [mPa·s], [2]
Settings	x1 = 0.0247	x1 = 0.05399	x1 = 0.08909	x1 = 0.1321	x1 = 0.1858	x1 = 0.2551	x1 = 0.3475	x1 = 0.4773	x1 = 0.6726	x1 = 1
303.15 K	1.08 ± 0.026	1.353 ± 0.032	1.656 ± 0.039	1.979 ± 0.046	2.247 ± 0.051	2.396 ± 0.054	2.418 ± 0.055	2.296 ± 0.052	1.825 ± 0.042	1.375 ± 0.033
308.15 K	0.953 ± 0.024	1.165 ± 0.028	1.459 ± 0.035	1.652 ± 0.039	1.888 ± 0.044	2.016 ± 0.046	2.051 ± 0.047	1.941 ± 0.045	1.528 ± 0.036	1.126 ± 0.027
313.15 K	0.811 ± 0.021	0.985 ± 0.024	1.205 ± 0.029	1.367 ± 0.033	1.529 ± 0.036	1.668 ± 0.039	1.733 ± 0.04	1.6 ± 0.038	1.323 ± 0.032	0.942 ± 0.023
318.15 K	0.735 ± 0.019	0.885 ± 0.022	1.031 ± 0.025	1.176 ± 0.028	1.368 ± 0.033	1.457 ± 0.034	1.53 ± 0.036	1.41 ± 0.033	1.133 ± 0.028	0.832 ± 0.021
323.15 K	0.667 ± 0.018	0.796 ± 0.02	0.926 ± 0.023	1.056 ± 0.026	1.226 ± 0.03	1.322 ± 0.032	1.381 ± 0.033	1.258 ± 0.03	1.05 ± 0.026	0.757 ± 0.019

O [water] + CCOCCO
[2], x2 = 0
Settings	viscosity [mPa·s]
303.15 K	0.7975 ± 0.02
308.15 K	0.7195 ± 0.019
313.15 K	0.6532 ± 0.017
318.15 K	0.5963 ± 0.016
323.15 K	0.5471 ± 0.015

O [water] + COCCO
[2], x2 = 0
Settings	viscosity [mPa·s]
303.15 K	0.7975 ± 0.02
308.15 K	0.7195 ± 0.019
313.15 K	0.6532 ± 0.017
318.15 K	0.5963 ± 0.016
323.15 K	0.5471 ± 0.015

O [water] + NCCO
[2], x2 = 0
Settings	viscosity [mPa·s]
303.15 K	0.7975 ± 0.082
308.15 K	0.7195 ± 0.074
313.15 K	0.6532 ± 0.067
318.15 K	0.5963 ± 0.061
323.15 K	0.5471 ± 0.056
